Data on nine compounds can be found in patent US4120810A, “Paint remover with improved safety characteristics” (priority 1976, dated 1978).

Like-named read-outs stand apart in the source and are kept apart here.

For series [1] the following is noted: 75° F.; cited from earlier work.
The conditions of series [2]: cited from earlier work.
Series [3] can be described thus: Paint removal, N-vinyl 2-pyrrolidone mixtures and pyrrolidone 2 (Example 4). To be noted: variety of surfaces, as in Example 1. The method, then: N-vinyl 2-pyrrolidone was substituted for NMP in the mixtures prepared in Example 1. They were tested as a paint remover on a variety of surfaces, also as in Example 1.
The nature of series [4]: Minutes to complete bubbling / softening of finishes (Example 5). How it is done: A 50 mole percent mixture of diacetone alcohol as the first chemical and Panasol AN-1 as the second chemical was compared against pure diacetone alcohol on a variety of surfaces.
Latex enamel was also tested.

Series [5] in a line: Deglosser test: adhesion of latex enamel to wiped alkyd enamel (Example 6). To be noted: after wiping off cooking oil with saturated paper towel, painting and drying. How it is done:
The mixture of Example 5 and straight diacetone alcohol were tested as deglossers, wherein an alkyd surface was covered with cooking oil. Then a paper towel saturated with the liquid was used to wipe off both the oil and the surface sheen of the alkyd enamel. This was followed by painting with latex enamel. […] Said commercially available deglossers contained such chemicals as methylene chloride, alcohols, and petroleum distillates.

A short description of series [6]: Paint stripping, xylene and diacetone alcohol mixture (Example 7). The text has this: A 50 mole percent mixture of xylene and diacetone alcohol was compared against the pure components on a number of substrates for use as paint strippers. […] On an alkyd sash and trim paint the xylene was ineffective.
A short description of series [7]: Paint removal, NMP and benzyl alcohol (Example 9). Particulars: alone. From the text:
However, its mixture with NMP had substantially less effectiveness than either pure component.

Series [8] in a line: Paint removal comparison of NMP/Panasol AN-1 mixtures with the pure components (Example 1). How it is done:
Various mixtures of Panasol AN-1 and NMP were compared against the paint removal efficiency of the pure components. The following surfaces were tested: alkyd enamel, polyurethane varnish, two-part epoxy enamel, polyurethane marine enamel, latex enamel, and a surface with seven layers of aged alkyd enamels.
The straight line drawn at a 45° angle represents the expected effectiveness, based on the state of the art with an averaging of the properties of the pure components (R. S. Downing, ibid.).

As for `ClCCl` [Methylene chloride], in series [1], the vapor pressure is on record as 400 mm Hg. Besides, the metabolism result in series [2] (background literature) is on record as “metabolized to carbon monoxide”.

`c1ccccc1` [benzene]: in series [2] (background literature), the “toxicity / health effects in words” value was “induces severe chronic toxic effects, causing anemia and damaging the bone marrow”.

On to `O=C1CCCN1` [pyrrolidone 2], for which, in series [3], the paint removal effectiveness entry is recorded as “ineffective as a paint remover”.

`CC(=O)CC(C)(C)O` [Diacetone Alcohol, diacetone alcohol]: the “Minutes to Complete Bubbling” value in series [4] (Acrylic enamel) was 32 min; in series [4] (Alkyd enamel), 40 min; in series [4] (Polyurethane varnish) it was 36 min; in series [4] (polyurethane enamel) it was 17 min. This compound returned a time to softening in series [4] (Latex enamel (does not bubble)) of 4 min. For the same compound, the softening and bubbling entry in series [4] (alkyd and epoxy surfaces) was “would soften alkyd and epoxy surfaces, permitting scraping but would not bubble them in a reasonable time”. Further, the “adhesion of the latex enamel to the alkyd enamel” value in series [5] was “excellent”. For the same compound, the paint stripping effectiveness entry in series [6] (alkyd sash and trim paint) is recorded as “effective but very slow”; in series [6] (brushing lacquer), “equally effective”.

For the compound `CC(C)=O` [Acetone], the “toxicity / health effects in words” value in series [2] (background literature) is recorded as “low toxicity”.

For xylene, the paint stripping effectiveness entry was “ineffective” in series [6] (alkyd sash and trim paint); “ineffective” in series [6] (brushing lacquer); “very slow acting” in series [6] (latex flat paint).

In the case of `CO` [Methanol], the elimination entry in series [2] (Sax, Dangerous Properties of Industrial Materials) is “slowness with which it is eliminated”. Further, the “toxicity / health effects in words” value in series [2] (background literature) was “prolongs the period of cardiovascular stress caused by the methylene chloride”; in series [2] (background literature, listed as methanol), “Severe exposures may cause dizziness, unconsciousness, sighing respiration, cardiac depression and eventually death”.

As to `OCc1ccccc1` [benzyl alcohol], the paint removal ability result in series [7] is “some ability to soften paint and remove it”.

In the case of `CN1CCCC1=O` [NMP, n-methyl 2 pyrrolidone], the removal time result in series [8] (epoxy) was “ten”; in series [8] (polyurethane enamel), 5 min. In addition, the paint removal effectiveness entry in series [8] (old lead based paint) is “equally effective”; in series [8] (one surface with a modern coating), “would not succumb to NMP”.
